# Values of other authors, collected in patent US11191734B2, “Ketamine transdermal delivery system” (SHENOX PHARMACEUTICALS, LLC, priority 2015, dated 2021).
# Tests used:
# [1] = in vivo
# [2] = not given; remark: listed apart in the source
# NMDA receptor = conditions: in vitro
# [3] = three-compartment model, 70-kg human
smiles,measurement,setting,value
CNC1(c2ccccc2Cl)CCCCC1=O (racemic) [ketamine],onset of antidepressant effect after administration,[1],≤ 2 h
same,absolute oral bioavailability,in humans,10-20%
same,half-life,in vivo,about 2 hours
same,systemic (primarily hepatic) clearance,in vivo,about 19 ml/min·kg
same,V1,[3],133 L
same,clearance,[3],79.8 L/h
same,micro constant k12,[3],0.174 h⁻¹
same,micro constant k13,[3],1.18 h⁻¹
same,micro constant k21,[3],0.124 h⁻¹
same,micro constant k31,[3],1.59 h⁻¹
CN[C@@]1(c2ccccc2Cl)CCCCC1=O [R-ketamine],antidepressant effectiveness,[2]; animal model studies,more effective as an antidepressant than S-ketamine
same,psychotomimetic side effects and abuse liability,[2]; in vivo,free of psychotomimetic side effects and abuse liability
CN[C@]1(c2ccccc2Cl)CCCCC1=O [S-ketamine],affinity on NMDA receptor binding relative to R-ketamine,NMDA receptor,~4 fold
